Like-named read-outs stand apart in the source and are kept apart here.

This note sets out measurements from patent publication US20100003209A1, “Odor Blocking Water-Absorbent Compositions” (BASF SE, priority 2006, published 2010).

Data set [1] can be described thus: Centrifuge Retention Capacity (CRC), EDANA test method No. 441.2-02. The class given is physicochemical.
The next data set has as its target urease (from jack beans) (Canavalia ensiformis, UniProt P07374). Particulars: 23° C. The procedure: The measurements should be carried out, unless otherwise stated, at an ambient temperature of 23±2° C. and a relative humidity of 50±10%. The water-absorbing polymers are thoroughly commixed prior to the measurement.
To determine the odor-preventing effect, 2 g of each of the compositions produced above were placed in a 100 ml Erlenmeyer flask and admixed with a freshly prepared solution of 30 mg of urease (from jack beans; lyophilized 5 U/mg for urea assay in serum; Merck KGaA, Germany) and 50 ml of 0.9% sodium chloride solution, the sodium chloride solution containing 8.56 g/l of urea, and sealed with a stopper having an internal diffusion tubelet (Dräger® Röhrchen; ammonia 20/a-D, 20 to 1500 ppm*h). The measurement was discontinued after 6 hours. The test was carried out at 23° C.

Where [2] appears, read: 0.0500% by weight in composition with polymer from Example 1 (55 mol % neutralized).
Setting [3] is: 0.2000% by weight in composition with polymer from Example 1 (55 mol % neutralized).

Chain of urease (from jack beans) (P07374 whole entry, looked up, the tested form may be a part): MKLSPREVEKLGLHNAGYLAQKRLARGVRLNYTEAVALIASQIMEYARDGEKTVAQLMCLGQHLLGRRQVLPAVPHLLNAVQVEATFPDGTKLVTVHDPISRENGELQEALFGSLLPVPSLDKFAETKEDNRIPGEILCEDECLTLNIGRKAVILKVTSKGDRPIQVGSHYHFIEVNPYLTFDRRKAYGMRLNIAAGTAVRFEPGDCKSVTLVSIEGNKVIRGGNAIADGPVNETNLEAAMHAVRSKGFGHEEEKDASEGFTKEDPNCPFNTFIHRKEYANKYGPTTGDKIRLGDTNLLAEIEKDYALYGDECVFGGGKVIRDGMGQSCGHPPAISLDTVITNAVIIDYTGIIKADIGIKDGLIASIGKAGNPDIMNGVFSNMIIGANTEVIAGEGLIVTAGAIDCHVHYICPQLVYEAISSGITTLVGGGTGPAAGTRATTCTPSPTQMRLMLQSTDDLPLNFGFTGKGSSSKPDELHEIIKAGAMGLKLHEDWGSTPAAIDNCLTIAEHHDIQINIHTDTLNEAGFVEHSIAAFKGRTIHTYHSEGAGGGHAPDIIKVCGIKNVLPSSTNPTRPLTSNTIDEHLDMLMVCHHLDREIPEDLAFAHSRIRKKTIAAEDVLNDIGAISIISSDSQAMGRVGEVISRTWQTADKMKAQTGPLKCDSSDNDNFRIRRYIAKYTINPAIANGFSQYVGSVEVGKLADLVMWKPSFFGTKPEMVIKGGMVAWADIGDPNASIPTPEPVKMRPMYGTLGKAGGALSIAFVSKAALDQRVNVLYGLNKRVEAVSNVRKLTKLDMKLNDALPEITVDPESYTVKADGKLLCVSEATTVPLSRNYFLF

On to `Oc1ccc(O)cc1` [hydroquinone], for which the CRC is 28.5 g/g in data set [1] (0.0050% by weight in composition with polymer from Example 1 (55 mol % neutralized)), 28.7 g/g in data set [1] (setting [2]), 25.3 g/g in data set [1] (setting [3]) and 23.4 g/g in data set [1] (1.0000% by weight in composition with polymer from Example 1 (55 mol % neutralized)). The “NH3 after 6 hours” value is 91 ppm at urease (from jack beans) (0.0025% by weight in composition, degree of neutralization 55 mol %); 182 ppm at urease (from jack beans) (0.0025% by weight in composition, degree of neutralization 60 mol %); 800 ppm at urease (from jack beans) (0.0025% by weight in composition, degree of neutralization 72 mol %); 58 ppm at urease (from jack beans) (0.0050% by weight in composition, degree of neutralization 55 mol %); 78 ppm on urease (from jack beans) (0.0050% by weight in composition, degree of neutralization 60 mol %); 381 ppm on urease (from jack beans) (0.0050% by weight in composition, degree of neutralization 72 mol %). Moreover, the “NH3 after 6 hours” value is 29 ppm at urease (from jack beans) (0.0100% by weight in composition, degree of neutralization 55 mol %); 45 ppm at urease (from jack beans) (0.0100% by weight in composition, degree of neutralization 60 mol %); 214 ppm at urease (from jack beans) (0.0100% by weight in composition, degree of neutralization 72 mol %); 0 ppm at urease (from jack beans) (0.0200% by weight in composition, degree of neutralization 55 mol %); 10 ppm at urease (from jack beans) (0.0200% by weight in composition, degree of neutralization 60 mol %); 63 ppm on urease (from jack beans) (0.0200% by weight in composition, degree of neutralization 72 mol %). The “NH3 after 6 hours” value on urease (from jack beans) (0.0500% by weight in composition, degree of neutralization 55 mol %) is 0 ppm; on urease (from jack beans) (0.0500% by weight in composition, degree of neutralization 60 mol %) it was 0 ppm; on urease (from jack beans) (0.0500% by weight in composition, degree of neutralization 72 mol %), 15 ppm; at urease (from jack beans) (0.2000% by weight in composition, degree of neutralization 55 mol %), 0 ppm; on urease (from jack beans) (0.2000% by weight in composition, degree of neutralization 60 mol %), 0 ppm; at urease (from jack beans) (0.2000% by weight in composition, degree of neutralization 72 mol %) it was 0 ppm. Also, the “NH3 after 6 hours” value is given as 0 ppm on urease (from jack beans) (1.0000% by weight in composition, degree of neutralization 55 mol %); 0 ppm on urease (from jack beans) (1.0000% by weight in composition, degree of neutralization 60 mol %); 0 ppm on urease (from jack beans) (1.0000% by weight in composition, degree of neutralization 72 mol %).

As to `[F-].[Na+]` [sodium fluoride], the results for the CRC in data set [1] (setting [2]), in data set [1] (0.0900% by weight in composition with polymer from Example 1 (55 mol % neutralized)) and in data set [1] (setting [3]) were 29.1 g/g, 28.5 g/g and 24.1 g/g, respectively.
